# Experimental data from patent US8362000B2, “Azetidinyl diamides as monoacylglycerol lipase inhibitors” (Janssen Pharmaceutica NV, priority 2009, dated 2013).
# Changes are numbered by the printed parent chain. Read-outs that look alike come from different tables or passages of the source.
# Assays:
# MGL = biological target: T1, MGL (Rattus norvegicus, UniProt Q8R431); test: 2-AG accumulation assay in rat brain homogenate; format: biochemical; conditions: rat brain homogenate, 2-AG accumulation as percent of vehicle; for 2-AG accumulation, % of vehicle control at 1 µM: compound 1 μM, read-out: Rat Brain 2AG % VehCntrl (%) @ 1 μM; for 2-AG accumulation, % of vehicle control at 10 µM: compound 10 μM, read-out: Rat Brain 2AG % VehCntrl (%) @ 10 μM
# T1 construct: one g rat brain was homogenized using a Polytron homogenizer; from tissue; host or cells: rat brain homogenate
# T1 sequence (Q8R431 1-303): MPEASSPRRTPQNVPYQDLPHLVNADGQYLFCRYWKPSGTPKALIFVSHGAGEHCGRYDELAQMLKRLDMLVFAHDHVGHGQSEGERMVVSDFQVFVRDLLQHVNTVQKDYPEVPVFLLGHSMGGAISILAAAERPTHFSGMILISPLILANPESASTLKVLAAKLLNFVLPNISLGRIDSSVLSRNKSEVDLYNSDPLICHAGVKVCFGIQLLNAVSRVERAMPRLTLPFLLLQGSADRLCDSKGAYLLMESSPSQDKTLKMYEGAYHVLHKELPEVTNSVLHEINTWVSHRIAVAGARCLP
# mutant MGL = biological target: T2, mutant MGL (Homo sapiens, UniProt Q99685, L169S/L176S); test: MGL ThermoFluor assay - mutant; format: binding
# T2 sequence (Q99685 1-303 L169S/L176S): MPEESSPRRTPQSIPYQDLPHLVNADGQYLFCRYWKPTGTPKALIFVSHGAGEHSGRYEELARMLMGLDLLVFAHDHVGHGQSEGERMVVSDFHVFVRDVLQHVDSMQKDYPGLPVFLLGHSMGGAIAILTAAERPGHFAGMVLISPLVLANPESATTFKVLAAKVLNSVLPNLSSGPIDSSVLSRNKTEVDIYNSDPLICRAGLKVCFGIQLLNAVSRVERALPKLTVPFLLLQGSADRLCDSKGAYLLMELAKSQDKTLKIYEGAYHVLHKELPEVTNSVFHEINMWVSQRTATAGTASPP
# [1] = biological target: T3, purified wild type MGL (wt-MGLL 6H-11-313) (Homo sapiens, UniProt Q99685)
# T3 sequence (Q99685 1-303): T2 sequence (Q99685 1-303 L169S/L176S) with S169L, S176L
# [2] = ThermoFluor concentration-response, read-out: MGL mutant ThermoFluor Kd
# [3] = ThermoFluor, compound concentration measured by qNMR, read-out: MGL mutant ThermoFluor qKd (μM) (using qNMR conc.)
# [4] = ThermoFluor thermal stability binding assay, read-out: MGL mutant ThermoFluor Kd
# [5] = compound concentration measured by qNMR, read-out: MGL mutant ThermoFluor qKd (using qNMR conc.)
# [6] = ThermoFluor, compound concentration measured by qNMR, read-out: MGL mutant ThermoFluor qKd (using qNMR conc.)
SMILES,"2-AG accumulation, % of vehicle control at 1 µM (MGL) [%]",Kd (mutant MGL; [2]) [µM],IC50 [1] [nM],also measured
O=C(c1nccs1)N1CCN(C2CN(C(=O)c3sc4cc(Cl)ccc4c3C(F)(F)F)C2)CC1 [Cpd 664],498,0.006,11,–
"O=C(c1ccc(-c2ccc(F)cc2)cc1)N1CC(N2CCN(C(=O)c3cscn3)CC2)C1 [Cpd 225, 1-{1-[(4′-Fluorobiphenyl-4-yl)carbonyl]azetidin-3-yl}-4-(1,3-thiazol-4-ylcarbonyl)piperazine]",–,–,54.7,"2-AG accumulation, % of vehicle control at 10 µM (MGL): 656%; Kd (mutant MGL; [4]): 0.02 µM"
NC(=O)c1cccc(-n2ccc3cc(C(=O)N4CC(N5CCN(C(=O)c6nccs6)CC5)C4)ccc32)c1 [Cpd 1177],895,–,63,Kd (mutant MGL; [3]): 0.088 µM
"Cc1cc(-c2ccc(Cl)c(C(F)(F)F)c2)ccc1C(=O)N1CC(N2CCN(C(=O)c3ccccc3)CC2)C1 [Cpd 256, 1-(1-{[4′-Chloro-3-methyl-3′-(trifluoromethyl)biphenyl-4-yl]carbonyl}azetidin-3-yl)-4-(phenylcarbonyl)piperazine]",157,–,13.4,Kd (mutant MGL; [4]): 0.0333 µM
COc1cc(C(=O)N2CC(N3CCN(C(=O)c4cscn4)CC3)C2)ccc1-c1ccccc1 [Cpd 1253],190,0.088,725,"2-AG accumulation, % of vehicle control at 0.1 µM (MGL; compound 0.1 μM, read-out: Rat Brain 2AG % VehCntrl (%) @ 0.1 μM): 110%; 2-AG accumulation, % of vehicle control at 10 µM (MGL): 407%"
O=C(c1ccc[nH]1)N1CCN(C2CN(C(=O)c3nn(-c4ccc(Cl)cc4Cl)c4c3CSC/C4=C\c3ccc(F)cc3)C2)CC1 [Cpd 1024],281,–,69,Kd (mutant MGL; [5]): 0.135 µM
"Cc1ccc(-n2ccc3cc(C(=O)N4CC(N5CCN(C(=O)C(F)(F)F)CC5)C4)ccc32)nc1 [Cpd 1184, 1-(5-Methylpyridin-2-yl)-5-({3-[4-(trifluoroacetyl)piperazin-1-yl]azetidin-1-yl}carbonyl)-1H-indole]",401,–,86,Kd (mutant MGL; [6]): 0.244 µM
COc1c(C(=O)N2CC(N3CCN(C(=O)c4cscn4)CC3)C2)sc2cc(C(F)(F)F)ccc12 [Cpd 700],547,–,72,Kd (mutant MGL; [5]): 0.006 µM
"N#Cc1cccc(-c2ccc(C(=O)N3CC(N4CCN(C(=O)c5nccs5)CC4)C3)cc2)c1 [Cpd 161, 4′-({3-[4-(1,3-Thiazol-2-ylcarbonyl)piperazin-1-yl]azetidin-1-yl}carbonyl)biphenyl-3-carbonitrile]",335,0.0112,11.7,–
O=C(c1cc(-c2ccc(Cl)cc2)n(-c2ccc(Cl)c(Cl)c2)n1)N1CC(N2CCN(C(=O)c3nccs3)CC2)C1 [Cpd 1083],299,–,9,Kd (mutant MGL; [6]): 0.065 µM
O=C(c1ccc2c(c1)CCN(C(=O)C1CCC(C(F)(F)F)CC1)C2)N1CC(N2CCN(C(=O)c3nccs3)CC2)C1 (centres unmarked) [Cpd 685],756,–,33,Kd (mutant MGL; [4]): 0.067 µM
O=C(c1cc(-c2cccc(F)c2)c2[nH]ccc2c1)N1CC(N2CCN(C(=O)c3nccs3)CC2)C1 [Cpd 1183],549,–,85,Kd (mutant MGL; [3]): 0.067 µM
O=C(c1cscn1)N1CCN(C2CN(C(=O)c3cccc4nc(-c5ccc(F)cc5)oc34)C2)CC1 [Cpd 1282],128,–,2070,Kd (mutant MGL; [4]): 0.2 µM
O=C(c1nccs1)N1CCN(C2CN(C(=O)C3CCC(c4ccc(Cl)cc4)CC3)C2)CC1 (centres unmarked) [Cpd 637],272,0.053,41,–
"O=C(c1ccc2c(ccn2-c2ccccn2)c1)N1CC(N2CCN(C(=O)c3nccs3)CC2)C1 [Cpd 1135, 1-Pyridin-2-yl-5-({3-[4-(1,3-thiazol-2-ylcarbonyl)piperazin-1-yl]azetidin-1-yl}carbonyl)-1H-indole]",884,–,25,Kd (mutant MGL; [6]): 0.015 µM
"COc1cc(C(=O)N2CC(N3CCN(C(=O)c4ccccc4)CC3)C2)ccc1-c1ccc(F)c(Cl)c1 [Cpd 263, 1-{1-[(3′-Chloro-4′-fluoro-2-methoxybiphenyl-4-yl)carbonyl]azetidin-3-yl}-4-(phenylcarbonyl)piperazine]",199,–,28.5,Kd (mutant MGL; [4]): 0.005 µM
"O=C(c1ccc2c(ccn2-c2ncccn2)c1)N1CC(N2CCN(C(=O)c3cscn3)CC2)C1 [Cpd 1201, 1-Pyrimidin-2-yl-5-({3-[4-(1,3-thiazol-4-ylcarbonyl)piperazin-1-yl]azetidin-1-yl}carbonyl)-1H-indole]",475,0.179,151,–

# The next molecules have a lower IC50 [1] than those just listed; values first:
"2-AG accumulation, % of vehicle control at 1 µM (MGL) [%]",Kd (mutant MGL; [2]) [µM],IC50 [1] [nM],SMILES,also measured
574,0.013,< 5,"O=C(c1ccc2c(ccn2-c2ccc(C(F)(F)F)cc2)c1)N1CC(N2CCN(C(=O)c3ccc[nH]3)CC2)C1 [Cpd 1339, 5-({3-[4-(1H-Pyrrol-2-ylcarbonyl)piperazin-1-yl]azetidin-1-yl}carbonyl)-1-[4-(trifluoromethyl)phenyl]-1H-indole]",–
773,–,< 5,O=C(c1ccc2c(ccn2-c2ccc(OC(F)(F)F)cc2)c1)N1CC(N2CCN(C(=O)c3cscn3)CC2)C1 [Cpd 1370],Kd (mutant MGL; [3]): 0.013 µM
813,0.01,< 5,"O=C(c1ccc(-c2ccc(Br)cc2)cc1)N1CC(N2CCN(C(=O)c3nccs3)CC2)C1 [Cpd 168, 1-{1-[(4′-Bromobiphenyl-4-yl)carbonyl]azetidin-3-yl}-4-(1,3-thiazol-2-ylcarbonyl)piperazine]",–
486,0.002,< 5,"O=C(c1nccs1)N1CCN(C2CN(C(=O)c3sc4ccc(-c5ccccc5)cc4c3F)C2)CC1 [Cpd 1315, 1-{1-[(3-Fluoro-5-phenyl-1-benzothiophen-2-yl)carbonyl]azetidin-3-yl}-4-(1,3-thiazol-2-ylcarbonyl)piperazine]",–
457,0.002,< 5,"Cc1cc(C(=O)N2CC(N3CCN(C(=O)c4nccs4)CC3)C2)ccc1-c1ccccc1 [Cpd 1322, 1-{1-[(2-Methylbiphenyl-4-yl)carbonyl]azetidin-3-yl}-4-(1,3-thiazol-2-ylcarbonyl)piperazine]",–
570,–,7,O=C(c1ccc(OCc2cncc(Cl)c2)cc1)N1CC(N2CCN(C(=O)c3nccs3)CC2)C1 [Cpd 978],Kd (mutant MGL; [4]): 0.066 µM
465,0.05,7,O=C(c1ccccc1)N1CCN(C2CN(C(=O)c3ccc(Cc4ccc(C(F)(F)F)cc4)cc3)C2)CC1 [Cpd 771],–
722,–,< 5,"O=C(c1ccc2c(c1)CCN2c1ccc(F)cc1)N1CC(N2CCN(C(=O)c3nccs3)CC2)C1 [Cpd 885, 1-(4-Fluorophenyl)-5-({3-[4-(1,3-thiazol-2-ylcarbonyl)piperazin-1-yl]azetidin-1-yl}carbonyl)-2,3-dihydro-1H-indole]",Kd (mutant MGL; [5]): 0.001 µM
575,–,< 5,O=C(c1ccc(-c2cccc(C(F)(F)F)c2)cc1)N1CC(N2CCN(C(=O)c3ccc[nH]3)CC2)C1 [Cpd 1325],Kd (mutant MGL; [4]): 0.006 µM
297,0.004,< 5,O=C(c1nccs1)N1CCN(C2CN(C(=O)c3ccc(-c4ccccc4)cc3Cl)C2)CC1 [Cpd 1323],–
859,–,< 5,Cc1cn(-c2cccc(F)c2)c2ccc(C(=O)N3CC(N4CCN(C(=O)c5nccs5)CC4)C3)cc12 [Cpd 1368],Kd (mutant MGL; [3]): 0.001 µM
849,–,7,Cc1cn(-c2cccc(OC(F)(F)F)c2)c2ccc(C(=O)N3CC(N4CCN(C(=O)c5nccs5)CC4)C3)cc12 [Cpd 1068],Kd (mutant MGL; [3]): 0.002 µM
